Measured values taken from patent US6342534B1, “Analogs of biologically active, naturally occurring polyamines, pharmaceutical compositions and methods of treatment” (University of Florida Research Foundation, Inc., priority 1986, dated 2002).
Where two headings read alike, the source gives them in different places.

How the values were obtained:
[1] = system: L1210 cells; test: Growth inhibition of L1210 cells (IC50 at 48/96 h); assay type: cell-based; details: Mus musculus
[2] = cited from earlier work
[3] = system: a variety of tumors in cell culture; test: Anti-neoplastic activity against tumors in cell culture; assay type: cell-based
Text: (§1) If there is any significance to the role of charge interaction in the biological properties of the polyamine analogs, alterations in the polyamine methylene backbone should have significant impact on the compound's biological properties. […] The trifluoroethyl group substantially reduces the pKa of the terminal nitrogens and they are no longer protonated [J. Org. Chem., Vol. 24, “Fluorine containing nitrogen compounds—I Trifluoroethylamines,” Bissel et al, pages 1256-1259 (1959)]. Even though the dimensions of bis-β,β,β-trifluoroethylspermine and diethylspermine are essentially the same, what was once a tetracationic spermine analog is now only a dication. […] The same phenomenon is observed when one acetylates a terminal nitrogen of spermine. The amide nitrogen is not protonated at physiological pH, and the compound has no anti-neoplastic properties and behaves very much like spermidine in displacing ethidium iodide from DNA.

[4] = system: calf thymus DNA; test: Displacement of ethidium iodide from calf thymus DNA; assay type: binding; details: compared with natural polyamines
Text: as §1

[5] = Table 1, 48 h, read-out: IC50 (μM) of L1210 cells at 48 h
[6] = Table 1, 96 h, read-out: IC50 (μM) of L1210 cells at 96 h

| SMILES | IC50 [1, 5] | IC50 [1, 6] | SAT up-regulation (factor) [2] | anti-neoplastic activity [3] | ability to displace ethidium iodide from calf thymus DNA [4] |
| --- | --- | --- | --- | --- | --- |
| CCNCCCCNCCCCNCCCCNCC [DEHSPM, diethyl-homospermine] | – | – | little impact on SAT levels | – | – |
| CCNCCCNCCCNCCCNCC [DENSPM, diethylnorspermine] | – | – | 1,200 fold | – | – |
| FC(F)(F)CNCCCNCCCCNCCCNCC(F)(F)F [BTFESPM, bis-β,β,β-trifluoroethylspermine] | – | – | – | essentially disappears | behave more like putrescine than spermine |
| CCNCCCNCCCCNCCCNCC [DESPM, N^1,N^12-diethylspermine] | – | – | 200 fold | quite active | – |
| c1cc(CCNCCNCCc2ccncc2)ccn1 | > 100 µM | > 100 µM | – | – | – |

The next lines start with results.

| IC50 [1, 5] | IC50 [1, 6] | SMILES | SAT up-regulation (factor) [2] | anti-neoplastic activity [3] | ability to displace ethidium iodide from calf thymus DNA [4] |
| --- | --- | --- | --- | --- | --- |
| > 100 µM | 90 µM | c1cc(CNCCCCNCc2ccncc2)ccn1 | – | – | – |
| > 100 µM | 0.25 µM | C(CCNCCC1CCNCC1)CNCCC1CCNCC1 | – | – | – |
| 2 µM | 0.2 µM | C(CCNCC1CCNCC1)CNCC1CCNCC1 | – | – | – |
